System: phenol heterosidase activity of the enzymatic preparation
Assay: Inhibition of the phenol heterosidase activity by phenol compounds
Type: biochemical
Settings: concentration 1 g/l
Protocol: The measurement of phenol heterosidase enzymatic activity PeH is based on the release of carboxylic functions which lower the pH of the reaction medium. 9 mg of an aqueous extract of green oak are added, in a test tube, to 9 ml of a 0.1 M NaCl solution, pH 4.5, containing 1% of enzymatic preparation EP. A control tube is prepared under the same conditions, without enzymes. The pH is measured in the two tubes at time 0 (pHc0 for the control and pHe0 for the enzyme) and after 4 hours of incubation at 25° C. (pHc4 and pHe4, respectively). The optimum conditions were established beforehand and there is perfect correlation between the release of glucose and the drop in pH.
The phenol heterosidase activity is calculated from the equation:
PeH=[(pHc0−pHc4)−(pHe0−pHe4)/4]×100 (PeH being expressed in 10^−3 units of pH/ml/h)
In general, all the heteroside substrates are used by the enzymatic activities present. Only the condensed tannins from grape show inhibition of the phenol heterosidase activity.

O=C1OCC2OC(=O)c3cc(O)c(O)c(O)c3-c3c(O)c(O)c(O)c4c3C(=O)OC(C2OC(=O)c2cc(O)c(O)c(O)c2-c2c1cc(O)c(O)c2O)C1OC(=O)c2c-4c(O)c(O)c(O)c2C1O (stereo not shown) [vescalagin, Vescalagin]
PeH in presence of phenol compound: 100 10^−3 pH/ml/h

Source: patent publication US6623953B1, “Enzymatic composition and method for seasoning wood” (ETS. Robert Stiernon S.A., priority 1998, dated 2003)
